From patent US7514404B2, “PNA-neamine conjugates and methods for producing and using the same” (University of Medicine & Dentistry of New Jersey, priority 2004, dated 2009)

Test system: pseudotyped HIV-1 virions carrying the firefly luciferase reporter gene
Test: Luciferase activity in CEM cells infected with pseudotyped HIV-1 virions
Type: cell-based
Conditions: concentrations greater than 5 μM in the culture medium
Experimental: The ability of a TAR-specific PNA-neamine conjugate to block HIV-1 production when supplemented in the culture medium was also examined. Lymphocyte CEM cells were infected with pseudotyped HIV-1 virions carrying the firefly luciferase reporter gene. The infected cells were incubated with varying concentration of PNATAR-neamine conjugate 60 or naked PNATAR during 48 hours at 37° C. and lysed to measure firefly luciferase activity. Anti-TAR PNA-transportan conjugate (PNA-membrane-permeating peptide conjugate) known to inhibit HIV-1 replication (Kaushik, et al. (2002) supra) was used as a positive control. […] Supplementation of naked PNA of SEQ ID NO:1 in the culture medium had no influence on luciferase gene expression.
Isolation of HIV-1 Virions. The pseudotyped HIV-1 virions were isolated from the culture supernatant of 293T cells transfected with pHIV-1JR-CSF-Lucenv (-) and pVSV-G clones. The culture supernatant (500 mL) was filtered through 0.45 μm pore size membrane and centrifuged at 70,000 g for 45 minutes. […] HIV-1 virions were quantified by determining the RNA copy number in the sample using NUCLISENS® HIV-1-QT Amplication Kit (Organon Teknika, Durham, N.C.). […] The virion number estimated from the RNA copy number was in agreement with the number determined by p24 quantification (1 pg p24 per 12500 virions). […]

SMILES: NC[C@H]1O[C@H](O[C@H]2[C@H](O)[C@@H](O)[C@H](N)C[C@@H]2N)[C@H](N)[C@@H](O)[C@@H]1O [neamine core, neamine]
- inhibition of HIV-1 replication: did not inhibit
